Patent US8404670B2 (Sunovion Pharmaceuticals Inc., priority 2009, dated 2013)

Target: T1, human histamine H3 receptor (Homo sapiens, UniProt Q9Y5N1)
T1 construct: host or cells: cells expressing the human H3 receptor
Test: H3 GTPγS assay (SPA method), histamine H3 in vitro assay
Type: biochemical
Settings: GTPγ[35S] binding to membranes of cells expressing human H3; antagonist mode with R-γ-Me-Histamine at EC80 (30 nM); in one embodiment HCl salts tested; read-out: Potency (functional potency as indicated by IC50)
Description: H3 GTPγS assay (SPA method) was performed at EuroScreen (Belgium, ES-392-C) using conventional methods. Briefly, cells expressing the human histamine H3 receptor were homogenized in 15 mM Tris-HCl pH 7.5, 2 mM MgCl2, 0.3 mM EDTA, and 1 mM EGTA. Membranes were washed twice in the above tris buffer, collected by centrifugation (40,000×g, 25 min), and re-suspended in 75 mM Tris-HCl pH 7.5, 12.5 mM MgCl2, 0.3 mM EDTA, 1 mM EGTA, and 250 mM sucrose. Membranes were frozen in liquid nitrogen until use. On the day of the assay, membranes were thawed and diluted in assay buffer (20 mM HEPES pH 7.4, 100 mM NaCl, 10 μg/ml saponin, 1 mM MgCl2) to give 500 μg/ml and mixed (v/v) with GDP in assay buffer for a final GDP concentration of 10 μM and incubated on ice for at least 15 min. PVT-WGA beads (Amersham, RPNQ001) were diluted in assay buffer at 50 mg/mL and mixed with GTPγ[^35S] (Amersham, SJ1308) diluted in assay buffer to give ˜25,000 dpm/10 μL and mixed vol/vol just before the start of the reaction. The reaction was started by adding 50 μL of test compound, 20 μL of the membranes:GDP mix, 10 μL of buffer, and 20 μL of the GTPγ[^35S]:beads mix in a 96 well plate Optiplate™ (PerkinElmer, 6005299) covered with topseal (TopCount™, PerkinElmer), mixed with an orbital shaker for 2 min, incubated for 1 hour at room temperature, centrifuged for 10 min at 2000 rpm, incubated for 1 h at room temperature, and counted for 1 min in a TopCount™ reader (PerkinElmer). Dose response curves and IC50 values (concentration to inhibit the reaction by 50%) were calculated by nonlinear regression using XLfit software (IDBS).
For antagonists testing, 10 μL of a reference agonist (R-γ-Me-Histamine) instead of 10 μL buffer was added at a concentration corresponding to the EC80 (30 nM). Control ligands were R-γ-Me-Histamine (Tocris, 0569), Imetit (Sigma, I-135), Thioperamide (Tocris, 0644), and Clobenpropit (Tocris, 0754) diluted in assay buffer.
The compounds provided herein were tested in the histamine H3 in vitro assay. In one embodiment, the respective HCl salts of the compounds provided herein were prepared using standard chemical procedures and tested in the histamine H3 in vitro assay.

T1 sequence (Q9Y5N1 whole entry): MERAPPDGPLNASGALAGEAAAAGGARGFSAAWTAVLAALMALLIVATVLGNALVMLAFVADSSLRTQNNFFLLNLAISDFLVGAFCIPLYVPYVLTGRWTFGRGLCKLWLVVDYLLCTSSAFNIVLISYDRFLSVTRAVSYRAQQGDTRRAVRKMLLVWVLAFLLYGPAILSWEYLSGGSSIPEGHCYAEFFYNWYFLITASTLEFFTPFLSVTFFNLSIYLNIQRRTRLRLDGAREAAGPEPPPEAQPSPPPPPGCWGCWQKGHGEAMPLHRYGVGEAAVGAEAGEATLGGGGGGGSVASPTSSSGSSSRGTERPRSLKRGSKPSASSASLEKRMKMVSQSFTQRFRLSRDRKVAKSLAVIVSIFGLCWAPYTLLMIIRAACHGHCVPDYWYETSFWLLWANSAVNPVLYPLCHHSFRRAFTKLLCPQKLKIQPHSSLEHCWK

IC50 [nM]	SMILES
≤ 100	c1cc(-c2ccc3c(c2)nc2n3CCN(C3CCC3)CC2)cnn1 [Compound 127, 3-cyclobutyl-8-(pyridazin-4-yl)-2,3,4,5-tetrahydro-1H-benzo[4,5]imidazo[1,2-d][1,4]diazepine]
≤ 10	c1cc2c(cc1C1CCCN(C3CCC3)C1)nc1n2CCN(C2CCC2)CC1 (stereo not shown) [Compound 128, 3-cyclobutyl-8-(1-cyclobutylpiperidin-3-yl)-2,3,4,5-tetrahydro-1H-benzo[4,5]imidazo[1,2-d][1,4]diazepine]
≤ 10	c1cnc(N2CCCC(c3ccc4c(c3)nc3n4CCN(C4CCC4)CC3)C2)cn1 (stereo not shown) [Compound 129, 3-cyclobutyl-8-(1-(pyrazin-2-yl)piperidin-3-yl)-2,3,4,5-tetrahydro-1H-benzo[4,5]imidazo[1,2-d][1,4]diazepine]
≤ 100	c1cnc(N2CCCC(c3ccc4c(c3)nc3n4CCN(C4CCC4)CC3)C2)nc1 (stereo not shown) [Compound 130, 3-cyclobutyl-8-(1-(pyrimidin-2-yl)piperidin-3-yl)-2,3,4,5-tetrahydro-1H-benzo[4,5]imidazo[1,2-d][1,4]diazepine]
≤ 10	c1cc(-c2ccc3c(c2)nc2n3CCN(C3CCC3)CC2)nc(N2CCCC2)n1 [Compound 131, 3-cyclobutyl-8-(2-(pyrrolidin-1-yl)pyrimidin-4-yl)-2,3,4,5-tetrahydro-1H-benzo[4,5]imidazo[1,2-d][1,4]diazepine]
≤ 100	COc1nccc(-c2ccc3c(c2)nc2n3CCN(C3CCC3)CC2)n1 [Compound 132, 3-cyclobutyl-8-(2-methoxypyrimidin-4-yl)-2,3,4,5-tetrahydro-1H-benzo[4,5]imidazo[1,2-d][1,4]diazepine]
≤ 100	c1cc2c(cc1-c1ccc(N3CCCC3)nn1)nc1n2CCN(C2CCC2)CC1 [Compound 133, 3-cyclobutyl-8-(6-(pyrrolidin-1-yl)pyridazin-3-yl)-2,3,4,5-tetrahydro-1H-benzo[4,5]imidazo[1,2-d][1,4]diazepine]
≤ 100	COc1ccc(-c2ccc3c(c2)nc2n3CCN(C3CCC3)CC2)nn1 [Compound 134, 3-cyclobutyl-8-(6-methoxypyridazin-3-yl)-2,3,4,5-tetrahydro-1H-benzo[4,5]imidazo[1,2-d][1,4]diazepine]
≤ 100	c1cc(-c2ccc3c(c2)nc2n3CCN(C3CCC3)CC2)nc(N2CCCC2)c1 [Compound 135, 3-cyclobutyl-8-(6-(pyrrolidin-1-yl)pyridin-2-yl)-2,3,4,5-tetrahydro-1H-benzo[4,5]imidazo[1,2-d][1,4]diazepine]
≤ 100	CN1CCN(c2cccc(-c3ccc4c(c3)nc3n4CCN(C4CCC4)CC3)n2)CC1 [Compound 136, 3-cyclobutyl-8-(6-(4-methylpiperazin-1-yl)pyridin-2-yl)-2,3,4,5-tetrahydro-1H-benzo[4,5]imidazo[1,2-d][1,4]diazepine]
≤ 100	COc1cccc(-c2ccc3c(c2)nc2n3CCN(C3CCC3)CC2)n1 [Compound 137, 3-cyclobutyl-8-(6-methoxypyridin-2-yl)-2,3,4,5-tetrahydro-1H-benzo[4,5]imidazo[1,2-d][1,4]diazepine]
≤ 100	NCCc1ccc2c(c1)nc1n2CCN(C2CCC2)CC1 [Compound 138, 2-(3-cyclobutyl-2,3,4,5-tetrahydro-1H-benzo[4,5]imidazo[1,2-d][1,4]diazepin-8-yl)ethanamine]
≤ 100	CN(C)CCc1ccc2c(c1)nc1n2CCN(C2CCC2)CC1 [Compound 139, 2-(3-cyclobutyl-2,3,4,5-tetrahydro-1H-benzo[4,5]imidazo[1,2-d][1,4]diazepin-8-yl)-N,N-dimethylethanamine]
≤ 100	NCc1ccc2c(c1)nc1n2CCN(C2CCC2)CC1 [Compound 140]
≤ 100	O=C(NCc1ccc2c(c1)nc1n2CCN(C2CCC2)CC1)OCc1ccccc1 [Compound 141, benzyl((3-cyclobutyl-2,3,4,5-tetrahydro-1H-benzo[4,5]imidazo[1,2-d][1,4]diazepin-8-yl)methyl)carbamate]
≤ 100	CN(Cc1ccc2c(c1)nc1n2CCN(C2CCC2)CC1)C(=O)OCc1ccccc1 [Compound 142, benzyl((3-cyclobutyl-2,3,4,5-tetrahydro-1H-benzo[4,5]imidazo[1,2-d][1,4]diazepin-8-yl)methyl)(methyl)carbamate]
≥ 1000	O=C1c2cc3nc4n(c3cc2C(=O)N1Cc1ccccc1)CCN(C1CCC1)CC4 [Compound 143, 2-benzyl-8-cyclobutyl-7,8,9,10-tetrahydro-[1,4]diazepino[1′,7′:1,2]imidazo[4,5-f]isoindole-1,3(2H,6H)-dione]
≤ 10	c1ccc(CN2Cc3cc4nc5n(c4cc3C2)CCN(C2CCC2)CC5)cc1 [Compound 144, 2-benzyl-8-cyclobutyl-1,2,3,6,7,8,9,10-octahydro-[1,4]diazepino[1′,7′:1,2]imidazo[4,5-f]isoindole]
≤ 10	c1c2c(cc3c1nc1n3CCN(C3CCC3)CC1)CNC2 [Compound 145, 8-cyclobutyl-1,2,3,6,7,8,9,10-octahydro-[1,4]diazepino[1′,7′:1,2]imidazo[4,5-f]isoindole]
≤ 10	CN1Cc2cc3nc4n(c3cc2C1)CCN(C1CCC1)CC4 [Compound 146, 8-cyclobutyl-2-methyl-1,2,3,6,7,8,9,10-octahydro-[1,4]diazepino[1′,7′:1,2]imidazo[4,5-f]isoindole]
≤ 10	c1c2c(cc3c1nc1n3CCN(C3CCC3)CC1)CN(CC1CC1)C2 [Compound 147, 8-cyclobutyl-2-(cyclopropylmethyl)-1,2,3,6,7,8,9,10-octahydro-[1,4]diazepino[1′,7′:1,2]imidazo[4,5-f]isoindole]
≤ 100	c1cnc(N2Cc3cc4nc5n(c4cc3C2)CCN(C2CCC2)CC5)nc1 [Compound 148, 8-cyclobutyl-2-(pyrimidin-2-yl)-1,2,3,6,7,8,9,10-octahydro-[1,4]diazepino[1′,7′:1,2]imidazo[4,5-f]isoindole]
≥ 1000	c1cnc(N2Cc3cc4nc5n(c4cc3C2)CCN(C2CCC2)CC5)cn1 [Compound 149, 8-cyclobutyl-2-(pyrazin-2-yl)-1,2,3,6,7,8,9,10-octahydro-[1,4]diazepino[1′,7′:1,2]imidazo[4,5-f]isoindole]
≤ 100	c1cn(-c2ccc3c(c2)nc2n3CCN(C3CCC3)CC2)nn1 [Compound 150, 3-cyclobutyl-8-(1H-1,2,3-triazol-1-yl)-2,3,4,5-tetrahydro-1H-benzo[4,5]imidazo[1,2-d][1,4]diazepine]
≤ 100	c1cnn(-c2ccc3c(c2)nc2n3CCN(C3CCC3)CC2)n1 [Compound 151, 3-cyclobutyl-8-(2H-1,2,3-triazol-2-yl)-2,3,4,5-tetrahydro-1H-benzo[4,5]imidazo[1,2-d][1,4]diazepine]
≤ 100	c1ncn(-c2ccc3c(c2)nc2n3CCN(C3CCC3)CC2)n1 [Compound 152, 3-cyclobutyl-8-(1H-1,2,4-triazol-1-yl)-2,3,4,5-tetrahydro-1H-benzo[4,5]imidazo[1,2-d][1,4]diazepine]
≤ 100	c1cc2c(cc1-n1cnnn1)nc1n2CCN(C2CCC2)CC1 [Compound 154, 3-cyclobutyl-8-(1H-tetrazol-1-yl)-2,3,4,5-tetrahydro-1H-benzo[4,5]imidazo[1,2-d][1,4]diazepine]
≤ 100	Cc1nnnn1-c1ccc2c(c1)nc1n2CCN(C2CCC2)CC1 [Compound 156, 3-cyclobutyl-8-(5-methyl-1H-tetrazol-1-yl)-2,3,4,5-tetrahydro-1H-benzo[4,5]imidazo[1,2-d][1,4]diazepine]
